# Ends that are not written are not given here. Peptide text beside a SMILES is read from it. * marks the point of attachment. Biotin = O=C1N[C@H]2[C@H](CS[C@H]2CCCCC(=O)*)N1
# Experiments:
# [1] = biological target: T1, PDZ protein (GST-PDZ fusion) (Homo sapiens, UniProt O95049); assay: G' assay (10 uM PL peptide), results of TABLE 7 and TABLE 12; type: binding
# T1 construct: made in house; host or cells: E. coli (DH5alpha, BL21 or JM109)
# T1 sequence (O95049 1-919): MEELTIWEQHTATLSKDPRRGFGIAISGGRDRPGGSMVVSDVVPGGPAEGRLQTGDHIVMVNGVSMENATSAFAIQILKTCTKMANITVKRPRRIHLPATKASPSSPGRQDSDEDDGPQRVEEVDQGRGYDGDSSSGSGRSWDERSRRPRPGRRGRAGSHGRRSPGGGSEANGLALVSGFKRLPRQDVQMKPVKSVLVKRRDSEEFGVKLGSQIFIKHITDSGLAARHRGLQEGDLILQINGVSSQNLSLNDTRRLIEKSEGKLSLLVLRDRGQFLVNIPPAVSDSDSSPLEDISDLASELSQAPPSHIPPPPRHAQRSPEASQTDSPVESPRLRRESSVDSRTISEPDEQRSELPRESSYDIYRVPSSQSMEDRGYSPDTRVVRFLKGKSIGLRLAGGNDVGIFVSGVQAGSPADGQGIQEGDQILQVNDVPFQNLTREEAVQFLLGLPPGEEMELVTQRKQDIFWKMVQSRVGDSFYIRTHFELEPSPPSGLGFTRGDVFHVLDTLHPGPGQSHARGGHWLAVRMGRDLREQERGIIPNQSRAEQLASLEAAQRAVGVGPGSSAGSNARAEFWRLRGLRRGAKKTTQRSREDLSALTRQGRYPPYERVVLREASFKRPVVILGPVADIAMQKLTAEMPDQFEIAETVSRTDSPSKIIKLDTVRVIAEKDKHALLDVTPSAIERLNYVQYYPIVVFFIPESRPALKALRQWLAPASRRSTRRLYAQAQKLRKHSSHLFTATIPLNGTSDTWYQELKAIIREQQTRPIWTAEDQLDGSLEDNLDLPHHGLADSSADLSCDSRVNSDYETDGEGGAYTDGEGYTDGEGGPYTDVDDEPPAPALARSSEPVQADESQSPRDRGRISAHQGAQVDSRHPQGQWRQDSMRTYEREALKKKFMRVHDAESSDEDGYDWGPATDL
# Method in brief: (§1)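 Biotin-PL peptide (N-term label), 10 uM vs GST-PDZ; protein 5 ug/ml by default. A450 nm binned: 1 = 0-1, 2 = 1-2, 3 = 2-3, 4 = 3-4, 5 = >4 on >2 repeats, 0 = no binding.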
# [2] = biological target: T2, PDZ protein (GST-PDZ fusion) (Homo sapiens, UniProt Q9ULJ8); assay: as above; type: binding; conditions: PDZ KIAA1222, PDZ Domain 1
# T2 construct: made in house; host or cells: E. coli (DH5alpha, BL21 or JM109)
# T2 sequence (Q9ULJ8 whole entry, the tested form may be a part): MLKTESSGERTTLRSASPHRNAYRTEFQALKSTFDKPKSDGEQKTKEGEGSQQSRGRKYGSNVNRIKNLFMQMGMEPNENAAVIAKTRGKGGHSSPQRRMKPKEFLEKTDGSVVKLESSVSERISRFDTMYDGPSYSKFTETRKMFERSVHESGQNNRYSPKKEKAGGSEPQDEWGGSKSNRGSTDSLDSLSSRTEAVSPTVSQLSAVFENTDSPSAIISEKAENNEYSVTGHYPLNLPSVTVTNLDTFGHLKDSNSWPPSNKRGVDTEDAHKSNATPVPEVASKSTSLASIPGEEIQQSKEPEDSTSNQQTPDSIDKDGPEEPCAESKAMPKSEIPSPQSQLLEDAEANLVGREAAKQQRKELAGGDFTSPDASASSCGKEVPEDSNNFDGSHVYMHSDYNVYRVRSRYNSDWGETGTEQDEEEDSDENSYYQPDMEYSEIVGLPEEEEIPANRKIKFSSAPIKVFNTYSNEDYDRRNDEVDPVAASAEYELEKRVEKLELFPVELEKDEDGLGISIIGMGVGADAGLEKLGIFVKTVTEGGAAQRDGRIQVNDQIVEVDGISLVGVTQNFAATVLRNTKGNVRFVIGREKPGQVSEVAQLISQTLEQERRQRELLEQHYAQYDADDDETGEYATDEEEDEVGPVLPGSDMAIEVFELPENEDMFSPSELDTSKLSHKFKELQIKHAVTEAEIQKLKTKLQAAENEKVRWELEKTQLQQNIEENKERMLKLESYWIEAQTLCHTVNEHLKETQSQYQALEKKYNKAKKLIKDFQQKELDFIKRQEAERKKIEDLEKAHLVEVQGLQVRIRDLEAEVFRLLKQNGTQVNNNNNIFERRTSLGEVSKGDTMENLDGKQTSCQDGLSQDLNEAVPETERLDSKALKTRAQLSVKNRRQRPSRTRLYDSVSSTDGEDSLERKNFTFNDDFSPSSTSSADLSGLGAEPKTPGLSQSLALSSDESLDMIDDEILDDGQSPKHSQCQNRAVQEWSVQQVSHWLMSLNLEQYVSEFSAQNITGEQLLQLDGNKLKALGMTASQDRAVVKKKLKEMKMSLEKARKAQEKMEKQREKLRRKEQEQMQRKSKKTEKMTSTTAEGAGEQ
# Method in brief: as §1
"Classification ([1]; PDZ ZO-3, PDZ Domain 1)","Classification ([1]; PDZ ZO-3, PDZ Domain 3)",Classification [2],Compound
2 (A450 nm 1-2),1 (A450 nm 0-1),1 (A450 nm 0-1),CC[C@H](C)[C@H](NC(=O)[C@H](Cc1ccc(O)cc1)NC(=O)[C@@H](NC(=O)[C@@H]1CCCN1C(=O)[C@H](CCC(N)=O)NC(=O)[C@H](CCC(=O)O)NC(=O)[C@H](CCC(N)=O)NC(=O)[C@H](C)NC(=O)[C@@H](NC(=O)[C@H](CC(C)C)NC(=O)[C@H](CC(C)C)NC(=O)[C@H](CCCNC(=N)N)NC(=O)[C@H](Cc1ccc(O)cc1)NC(=O)[C@H](CCSC)NC(=O)[C@H](C)NC(=O)[C@H](C)NC(=O)[C@@H]1CCCN1C(=O)[C@H](CCSC)NC(=O)[C@@H](NC(=O)[C@H](CCCCN)NC(=O)CCCC[C@@H]1SC[C@@H]2NC(=O)N[C@@H]21)[C@@H](C)O)[C@@H](C)O)C(C)C)C(=O)O [MINT-1] (Biotin-KTMPAAMYRLLTAQEQPVYI-OH; C-terminus assumed)
,1 (A450 nm 0-1),1 (A450 nm 0-1),KTMPAAMFRLLTGQETPLYI (Biotin-KTMPAAMFRLLTGQETPLYI) [MINT-2]

# From US20050282743A1, “Molecular interactions in cells” (Arbor Vita Corporation, priority 2001, published 2005)
